Assay results as given in the NIST ThermoML archive (doi:10.1016/j.jct.2017.09.012).

Test: osmotic coefficient (dimensionless); mn = molality of the nth substance listed, in mol/kg
Settings: 101 kPa, Liquid, isopiestic method

O=S(=O)([O-])[O-].[Zn+2] [zinc sulfate] + O
Settings | osmotic coefficient
288.15 K, m1 = 3.567 | 1.09
288.15 K, m1 = 3.787 | 1.19
288.15 K, m1 = 3.997 | 1.29
298.15 K, m1 = 3.223 | 0.935
298.15 K, m1 = 3.836 | 1.16
308.15 K, m1 = 3.614 | 1.019
308.15 K, m1 = 3.962 | 1.144
308.15 K, m1 = 4.295 | 1.27
313.15 K, m1 = 4.014 | 1.133
313.15 K, m1 = 4.25 | 1.217
313.15 K, m1 = 4.47 | 1.302
